{
  "source": "paper PMC3515623",
  "about": "“WIKI4, a Novel Inhibitor of Tankyrase and Wnt/ß-Catenin Signaling” (PLoS ONE, 2012)",
  "molecular_target": "T1, TNKS2 (Homo sapiens, UniProt Q9H2K2)",
  "T1 construct": "Recombinant GST-TNKS2",
  "T1 sequence (Q9H2K2 1-1166)": "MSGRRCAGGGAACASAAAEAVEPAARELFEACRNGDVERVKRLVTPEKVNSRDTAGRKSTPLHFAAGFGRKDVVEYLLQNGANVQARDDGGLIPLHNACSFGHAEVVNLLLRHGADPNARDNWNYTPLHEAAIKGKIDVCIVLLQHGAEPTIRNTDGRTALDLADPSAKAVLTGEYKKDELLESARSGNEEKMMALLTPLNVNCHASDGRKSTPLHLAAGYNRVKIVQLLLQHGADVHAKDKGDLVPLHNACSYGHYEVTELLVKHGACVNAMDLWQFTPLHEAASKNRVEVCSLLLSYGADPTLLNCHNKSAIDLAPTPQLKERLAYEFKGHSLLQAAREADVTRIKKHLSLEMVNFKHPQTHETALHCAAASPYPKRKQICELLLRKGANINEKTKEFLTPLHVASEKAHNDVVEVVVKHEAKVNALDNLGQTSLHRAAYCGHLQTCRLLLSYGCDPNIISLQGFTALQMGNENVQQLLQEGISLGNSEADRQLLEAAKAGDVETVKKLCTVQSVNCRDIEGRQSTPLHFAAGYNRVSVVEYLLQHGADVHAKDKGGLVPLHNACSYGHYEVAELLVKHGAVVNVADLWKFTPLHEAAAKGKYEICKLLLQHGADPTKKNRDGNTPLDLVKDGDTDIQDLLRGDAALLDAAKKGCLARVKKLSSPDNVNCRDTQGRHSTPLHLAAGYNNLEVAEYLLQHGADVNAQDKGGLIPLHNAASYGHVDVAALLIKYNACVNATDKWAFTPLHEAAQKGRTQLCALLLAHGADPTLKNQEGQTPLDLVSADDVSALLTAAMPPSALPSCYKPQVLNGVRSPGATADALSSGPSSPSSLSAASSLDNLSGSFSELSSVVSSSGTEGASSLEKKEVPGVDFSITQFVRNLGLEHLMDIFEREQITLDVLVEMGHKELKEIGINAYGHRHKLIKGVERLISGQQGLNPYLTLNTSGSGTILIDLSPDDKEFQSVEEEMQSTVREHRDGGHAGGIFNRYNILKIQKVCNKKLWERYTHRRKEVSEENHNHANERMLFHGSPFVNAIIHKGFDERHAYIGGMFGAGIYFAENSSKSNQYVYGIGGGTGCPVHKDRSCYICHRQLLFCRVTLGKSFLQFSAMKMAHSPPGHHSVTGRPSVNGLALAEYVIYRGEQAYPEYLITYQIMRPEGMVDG",
  "assay": "in vitro auto-ADP-ribosylation assay with recombinant GST-TNKS2, biotinylated substrate, chemiluminescent detection",
  "assay_type": "biochemical",
  "data": [
    {"compound": "COc1ccc(-n2c(SCCCN3C(=O)c4cccc5cccc(c45)C3=O)nnc2-c2ccncc2)cc1", "note": "[WIKI4]", "values": [
      {"measurement": "IC50", "value": "~15", "unit": "nM"}
    ]}
  ]
}
